Patent publication US4782160A, “1,4-dihydropyridine derivatives” (Yamanouchi Pharmaceutical Co., Ltd., priority 1986, dated 1988)

How the values were obtained:
[1] = based on calcium antagonistic activity; cited from earlier work
[2] = test system: conscious normotensive rats; assay: Hypotensive activity: blood pressure and heart rate in conscious normotensive rats after oral administration; type: in vivo, rat
Experimental: The effect of the compound on arterial blood pressure (systolic, SBP mean, MBP diastolic, DBP) and heart rate (HR) was evaluated in conscious normotensive rats (NTR). Four to six days before the experiments, a polyethylene catheter for recording arterial blood pressure was surgically implanted into the thoracic aorta via the carotid artery under ether anesthesia. Arterial blood pressure and heart rate were recorded under freely moving conditions. The test compounds were suspended in 0.5% methylcellulose solution and administered by oral gavage.
Table 2 summarizes the changes in HR, SBP, MBP and DBP of conscious NTR after oral administration of the test compounds.

[3] = Acute toxicity in mice, intravenous (Up and Down Method); conditions: mouse, in vivo, i.v., ICR-SLC mice, n=10
Experimental: Acute toxicity of the test compound was evaluated according to the method of Brownlee, Hodges and Rosenblatt (The Up and Down Method with Small Samples. J. Am. Stat. As., 48, 262-277, 1953). The […] value of the test compound after intravenous injection to ICR-SLC mice was obtained (Table 3).

[4] = target: [^3 H]-Nitrendipine-labeled calcium channels; assay: [3H]-nitrendipine binding assay in rat brain membranes (Ca2+-antagonistic activity); conditions: mean of 3 experiments, 95% confidence limits in parenthesis on next line
Experimental: 1. Ca^2+ -Antagonistic activity:
Ca^2+ -Antagonistic activity of the compound was evaluated in [^3 H]-nitrendipine ([^3 H]-NIT) binding assay.

In the case of `COC(=O)C1=C(C)NC(C)=C(C(=O)OC)C1c1ccccc1[N+](=O)[O-]` [Nifedipine, reference compound], the “cerebro- and/or coronary vasodilating action” value [1] is given as “exhibits cerebro- and/or coronary vasodilating action”, the “DBP Change (Δ)” value ([2]; 3 mg/kg p.o., 0.25 hr, n=8, initial 97 ± 1.8) is given as -20.9 mmHg and the “MBP Change (Δ)” value ([2]; 3 mg/kg p.o., 0.25 hr, n=8, initial 110 ± 1.8) is given as -18.7 mmHg. For the same molecule, the “SBP Change (Δ)” value ([2]; 3 mg/kg p.o., 0.25 hr, n=8, initial 136 ± 2.2) was -14.4 mmHg, the “HR Change (Δ)” value ([2]; 3 mg/kg p.o., 0.25 hr, n=8, initial 349 ± 6.9) was 77.4 beats/min and the “DBP Change (Δ)” value ([2]; 3 mg/kg p.o., 0.5 hr, n=8, initial 97 ± 1.8) was -19.9 mmHg. For the same molecule, the “MBP Change (Δ)” value ([2]; 3 mg/kg p.o., 0.5 hr, n=8, initial 110 ± 1.8) was -19.1 mmHg, the “SBP Change (Δ)” value ([2]; 3 mg/kg p.o., 0.5 hr, n=8, initial 136 ± 2.2) was -17.6 mmHg and the “HR Change (Δ)” value ([2]; 3 mg/kg p.o., 0.5 hr, n=8, initial 349 ± 6.9) was 51.6 beats/min. The “DBP Change (Δ)” value ([2]; 3 mg/kg p.o., 0.75 hr, n=8, initial 97 ± 1.8) was -20.1 mmHg, the “MBP Change (Δ)” value ([2]; 3 mg/kg p.o., 0.75 hr, n=8, initial 110 ± 1.8) was -19.5 mmHg and the “SBP Change (Δ)” value ([2]; 3 mg/kg p.o., 0.75 hr, n=8, initial 136 ± 2.2) was -18.1 mmHg. For the same molecule, the “HR Change (Δ)” value ([2]; 3 mg/kg p.o., 0.75 hr, n=8, initial 349 ± 6.9) was 35.4 beats/min, the “DBP Change (Δ)” value ([2]; 3 mg/kg p.o., 1 hr, n=8, initial 97 ± 1.8) was -18.9 mmHg and the “SBP Change (Δ)” value ([2]; 3 mg/kg p.o., 1 hr, n=8, initial 136 ± 2.2) was -17.0 mmHg. The “HR Change (Δ)” value ([2]; 3 mg/kg p.o., 1 hr, n=8, initial 349 ± 6.9) was 23.0 beats/min, the “DBP Change (Δ)” value ([2]; 3 mg/kg p.o., 1.5 hr, n=8, initial 97 ± 1.8) was -11.8 mmHg and the “MBP Change (Δ)” value ([2]; 3 mg/kg p.o., 1.5 hr, n=8, initial 110 ± 1.8) was -11.5 mmHg. For the same molecule, the “SBP Change (Δ)” value ([2]; 3 mg/kg p.o., 1.5 hr, n=8, initial 136 ± 2.2) was -11.0 mmHg, the “HR Change (Δ)” value ([2]; 3 mg/kg p.o., 1.5 hr, n=8, initial 349 ± 6.9) was 12.9 beats/min and the “DBP Change (Δ)” value ([2]; 3 mg/kg p.o., 2 hr, n=8, initial 97 ± 1.8) was -9.4 mmHg. The “MBP Change (Δ)” value ([2]; 3 mg/kg p.o., 2 hr, n=8, initial 110 ± 1.8) was -9.7 mmHg, the “SBP Change (Δ)” value ([2]; 3 mg/kg p.o., 2 hr, n=8, initial 136 ± 2.2) was -10.4 mmHg and the “HR Change (Δ)” value ([2]; 3 mg/kg p.o., 2 hr, n=8, initial 349 ± 6.9) was 2.3 beats/min. The “DBP Change (Δ)” value ([2]; 3 mg/kg p.o., 3 hr, n=8, initial 97 ± 1.8) was -2.6 mmHg, the “MBP Change (Δ)” value ([2]; 3 mg/kg p.o., 3 hr, n=8, initial 110 ± 1.8) was -3.5 mmHg and the “SBP Change (Δ)” value ([2]; 3 mg/kg p.o., 3 hr, n=8, initial 136 ± 2.2) was -5.4 mmHg. For the same molecule, the “HR Change (Δ)” value ([2]; 3 mg/kg p.o., 3 hr, n=8, initial 349 ± 6.9) was -20.3 beats/min, the “DBP Change (Δ)” value ([2]; 3 mg/kg p.o., 4 hr, n=8, initial 97 ± 1.8) was 0.9 mmHg and the “MBP Change (Δ)” value ([2]; 3 mg/kg p.o., 4 hr, n=8, initial 110 ± 1.8) was 0.5 mmHg. The “SBP Change (Δ)” value ([2]; 3 mg/kg p.o., 4 hr, n=8, initial 136 ± 2.2) was -0.3 mmHg and the “HR Change (Δ)” value ([2]; 3 mg/kg p.o., 4 hr, n=8, initial 349 ± 6.9) was -13.4 beats/min.

With `COC(=O)C1=C(C)NC(C)=C(C(=O)OC)C1c1cc([N+](=O)[O-])ccc1OCCCCNCCCOc1ccccc1` [Example 1, dimethyl 4-[2-[4-(3-phenoxypropylamino)butoxy]-5-nitrophenyl]-2,6-dimethyl-1,4-dihydropyridine-3,5-dicarboxylate] the LD50 [3] was 29 mg/kg, the Ki [4] was 75 nM and the “DBP Change (Δ)” value ([2]; 30 mg/kg p.o., 1 hr, n=6, initial 103 ± 3.6) was -13.0 mmHg. For the same molecule, the “MBP Change (Δ)” value ([2]; 30 mg/kg p.o., 1 hr, n=6, initial 114 ± 3.6) was -12.1 mmHg, the “SBP Change (Δ)” value ([2]; 30 mg/kg p.o., 1 hr, n=6, initial 137 ± 3.7) was -10.2 mmHg and the “HR Change (Δ)” value ([2]; 30 mg/kg p.o., 1 hr, n=6, initial 361 ± 7.7) was 43.0 beats/min. For the same molecule, the “DBP Change (Δ)” value ([2]; 30 mg/kg p.o., 2 hr, n=6, initial 103 ± 3.6) was -21.3 mmHg, the “MBP Change (Δ)” value ([2]; 30 mg/kg p.o., 2 hr, n=6, initial 114 ± 3.6) was -20.0 mmHg and the “SBP Change (Δ)” value ([2]; 30 mg/kg p.o., 2 hr, n=6, initial 137 ± 3.7) was -17.2 mmHg. For the same molecule, the “HR Change (Δ)” value ([2]; 30 mg/kg p.o., 2 hr, n=6, initial 361 ± 7.7) was 77.8 beats/min, the “DBP Change (Δ)” value ([2]; 30 mg/kg p.o., 3 hr, n=6, initial 103 ± 3.6) was -25.5 mmHg and the “MBP Change (Δ)” value ([2]; 30 mg/kg p.o., 3 hr, n=6, initial 114 ± 3.6) was -25.1 mmHg. The “SBP Change (Δ)” value ([2]; 30 mg/kg p.o., 3 hr, n=6, initial 137 ± 3.7) was -24.3 mmHg, the “HR Change (Δ)” value ([2]; 30 mg/kg p.o., 3 hr, n=6, initial 361 ± 7.7) was 62.2 beats/min and the “DBP Change (Δ)” value ([2]; 30 mg/kg p.o., 4 hr, n=6, initial 103 ± 3.6) was -19.0 mmHg. For the same molecule, the “MBP Change (Δ)” value ([2]; 30 mg/kg p.o., 4 hr, n=6, initial 114 ± 3.6) was -18.9 mmHg, the “SBP Change (Δ)” value ([2]; 30 mg/kg p.o., 4 hr, n=6, initial 137 ± 3.7) was -18.7 mmHg and the “HR Change (Δ)” value ([2]; 30 mg/kg p.o., 4 hr, n=6, initial 361 ± 7.7) was 55.0 beats/min. For the same molecule, the “DBP Change (Δ)” value ([2]; 30 mg/kg p.o., 5 hr, n=6, initial 103 ± 3.6) was -16.7 mmHg, the “MBP Change (Δ)” value ([2]; 30 mg/kg p.o., 5 hr, n=6, initial 114 ± 3.6) was -16.5 mmHg and the “SBP Change (Δ)” value ([2]; 30 mg/kg p.o., 5 hr, n=6, initial 137 ± 3.7) was -16.2 mmHg. The “HR Change (Δ)” value ([2]; 30 mg/kg p.o., 5 hr, n=6, initial 361 ± 7.7) was 55.3 beats/min, the “DBP Change (Δ)” value ([2]; 30 mg/kg p.o., 6 hr, n=6, initial 103 ± 3.6) was -13.2 mmHg and the “MBP Change (Δ)” value ([2]; 30 mg/kg p.o., 6 hr, n=6, initial 114 ± 3.6) was -14.4 mmHg. The “SBP Change (Δ)” value ([2]; 30 mg/kg p.o., 6 hr, n=6, initial 137 ± 3.7) was -16.8 mmHg, the “HR Change (Δ)” value ([2]; 30 mg/kg p.o., 6 hr, n=6, initial 361 ± 7.7) was 30.5 beats/min and the “DBP Change (Δ)” value ([2]; 30 mg/kg p.o., 8 hr, n=6, initial 103 ± 3.6) was -12.5 mmHg. For the same molecule, the “MBP Change (Δ)” value ([2]; 30 mg/kg p.o., 8 hr, n=6, initial 114 ± 3.6) was -13.5 mmHg, the “SBP Change (Δ)” value ([2]; 30 mg/kg p.o., 8 hr, n=6, initial 137 ± 3.7) was -15.3 mmHg and the “HR Change (Δ)” value ([2]; 30 mg/kg p.o., 8 hr, n=6, initial 361 ± 7.7) was 33.0 beats/min. The “DBP Change (Δ)” value ([2]; 30 mg/kg p.o., 10 hr, n=6, initial 103 ± 3.6) was -12.3 mmHg, the “MBP Change (Δ)” value ([2]; 30 mg/kg p.o., 10 hr, n=6, initial 114 ± 3.6) was -13.1 mmHg and the “SBP Change (Δ)” value ([2]; 30 mg/kg p.o., 10 hr, n=6, initial 137 ± 3.7) was -14.7 mmHg. For the same molecule, the “HR Change (Δ)” value ([2]; 30 mg/kg p.o., 10 hr, n=6, initial 361 ± 7.7) was 22.5 beats/min, the “DBP Change (Δ)” value ([2]; 30 mg/kg p.o., 24 hr, n=6, initial 103 ± 3.6) was 0.7 mmHg and the “MBP Change (Δ)” value ([2]; 30 mg/kg p.o., 24 hr, n=6, initial 114 ± 3.6) was 0.7 mmHg. For the same molecule, the “SBP Change (Δ)” value ([2]; 30 mg/kg p.o., 24 hr, n=6, initial 137 ± 3.7) was 0.7 mmHg and the “HR Change (Δ)” value ([2]; 30 mg/kg p.o., 24 hr, n=6, initial 361 ± 7.7) was 28.0 beats/min.

In the case of `COC(=O)C1=C(C)NC(C)=C(C(=O)OCCN(C)Cc2ccccc2)C1c1cccc([N+](=O)[O-])c1` (centres unmarked) [Nicardipine], the “cerebro- and/or coronary vasodilating action” value [1] is given as “exhibits cerebro- and/or coronary vasodilating action”.
